Assay results published in ChEMBL document CHEMBL1201862, “PubChem BioAssay data set” (2004).
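All cell lines were grown in 96-well plates and treated with compound for 48 hours. GI50: concentration for 50% inhibition of growth.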 Calls of active or inactive are those of the source. Cut-off read from the data, not from the text of the source: active = GI50 up to about 1.1 µM and inactive = higher.

Legend:
Assay in all cases: NCI tumour cell line growth inhibition, 48 h
ACHN = tested on: ACHN
KM-20L2 = tested on: KM-20L2
NCI-H460 = tested on: NCI-H460
A549 = tested on: A549
M19-MEL = tested on: M19-MEL
OVCAR-4 = tested on: OVCAR-4
NCI-H23 = tested on: NCI-H23
SK-MEL-28 = tested on: SK-MEL-28
DLD-1 = tested on: DLD-1
XF498 = tested on: XF498
LXFL 529 = tested on: LXFL 529
SNB-78 = tested on: SNB-78
COLO 205 = tested on: COLO 205
HCC 2998 = tested on: HCC 2998
MDA-MB-231 = tested on: MDA-MB-231
PC-3 = tested on: PC-3
T47D = tested on: T47D
Hs-578T = tested on: Hs-578T
MDA-N = tested on: MDA-N

Row | SMILES | GI50 (ACHN) | GI50 (KM-20L2) | GI50 (NCI-H460) | GI50 (A549) | GI50 (M19-MEL) | GI50 (OVCAR-4) | GI50 (NCI-H23) | GI50 (SK-MEL-28) | GI50 (DLD-1) | GI50 (XF498) | GI50 (LXFL 529) | GI50 (SNB-78) | GI50 (COLO 205) | GI50 (HCC 2998) | GI50 (MDA-MB-231) | GI50 (PC-3) | GI50 (T47D) | GI50 (Hs-578T) | GI50 (MDA-N)
1 | Cc1c(OC(C)C(=O)O)ccc2c(-c3ccccc3)cc(=O)oc12 (stereo not given) | > 100 µM (inactive) | > 100 µM (inactive) | > 100 µM (inactive) | > 100 µM (inactive) | > 100 µM (inactive) | > 100 µM (inactive) | > 100 µM (inactive) | > 100 µM (inactive) | > 100 µM (inactive) | > 100 µM (inactive) | > 100 µM (inactive) | > 100 µM (inactive) | > 100 µM (inactive) | > 100 µM (inactive) |  |  |  |  | 
2 | O=C(Nc1ccc(Cl)c(Cl)c1)C(=O)C(C(=O)c1ccccc1F)C1OC(=O)c2ccccc21 (stereo not given) | 31.9 µM (inactive) | 23.6 µM (inactive) | 18.6 µM (inactive) | 27.8 µM (inactive) | 14.6 µM (inactive) | 22.3 µM (inactive) | 28.6 µM (inactive) | 25.3 µM (inactive) | 26.4 µM (inactive) | 31.8 µM (inactive) | 17.6 µM (inactive) | 11.2 µM (inactive) | 16.1 µM (inactive) | 17.9 µM (inactive) |  |  |  |  | 
3 | ON(Cc1ccccc1)C(=S)c1ccccc1 | 4.21 µM (inactive) | 4.41 µM (inactive) | 1.93 µM (inactive) | 4.35 µM (inactive) | 6.58 µM (inactive) | 2.61 µM (inactive) | 3.62 µM (inactive) | 11.4 µM (inactive) | 5.18 µM (inactive) | > 41.7 µM (inactive) | 1.66 µM (inactive) | 31.8 µM (inactive) | 1.45 µM (inactive) | 7.24 µM (inactive) | 21.4 µM (inactive) | 3.03 µM (inactive) | 5.9 µM (inactive) | > 100 µM (inactive) | 6.81 µM (inactive)
4 | CC1CC(c2ccccc2)=Nc2ccccc2S1 (stereo not given) | > 100 µM (inactive) | > 100 µM (inactive) | > 100 µM (inactive) | > 100 µM (inactive) | 97.3 µM (inactive) | > 100 µM (inactive) | > 100 µM (inactive) | > 100 µM (inactive) | > 100 µM (inactive) | > 100 µM (inactive) | > 100 µM (inactive) | > 100 µM (inactive) | > 100 µM (inactive) | > 100 µM (inactive) |  |  |  |  | 
5 | S=C=NCCc1ccccc1 [PHENETHYLISOTHIOCYANATE] | 1.56 µM (inactive) | 0.729 µM (active) | 0.0973 µM (active) | 2.39 µM (inactive) | 0.753 µM (active) | 2.14 µM (inactive) | 0.453 µM (active) | 0.71 µM (active) | 0.0596 µM (active) | 2.39 µM (inactive) | 0.212 µM (active) | 0.818 µM (active) | 0.762 µM (active) | 0.412 µM (active) |  |  |  |  | 
